This note sets out measurements from ChEMBL document CHEMBL5034019, “Discovery of the Next-Generation Pan-TRK Kinase Inhibitors for the Treatment of Cancer” (J Med Chem, 2021).

The half-life is the time needed for the level to fall by half in the phase considered. Higher therefore signals slow decline. As a reminder, the Vd is the apparent volume that relates the amount in the body to the concentration in plasma or blood. Higher therefore signals extensive tissue distribution. For orientation: Cmax means the peak of the concentration-time curve. By bioavailability is commonly meant the share of a dose that reaches the circulation, judged against a reference dose that is usually intravenous. Read a high bioavailability as good availability. One may read the IC50 as the concentration needed to halve the response being measured. High values mean weaker potency in that assay, low ones greater potency in that assay.

Active and inactive are the calls of the source.

The target in data set [1] is Epidermal growth factor receptor (Homo sapiens) (UniProt P00533). Kind of data set: Inhibition of recombinant human EGFR (696 to end residues) assessed as residual activity at 0.5 uM using poly(Glu, Tyr) 4:1 as substrate at 40 mins in presence of [gamma-33ATP] by scintillation counting based radiometry assay relative to control.
Data set [2] concerns the target Focal adhesion kinase 1 (Homo sapiens) (UniProt Q05397). Briefly: Inhibition of recombinant human FAK (411 to 686 residues) assessed as residual activity at 0.5 uM using EEEEYEEEEEEYYIIEEEEEEYEEEEEEYYEEEEEEKKKK as substrate at 40 mins in presence of [gamma-33ATP] by scintillation counting based radiometry assay relative to control.
Data set [3] deals with Fibroblast growth factor receptor 3 (Homo sapiens) (UniProt P22607). Kind of data set: Inhibition of recombinant human FGFR3 (447 to 761 residues) assessed as residual activity at 0.5 uM using poly(Glu, Tyr) 4:1 as substrate at 40 mins in presence of [gamma-33ATP] by scintillation counting based radiometry assay relative to control.
In data set [4] the target is Fibroblast growth factor receptor 4 (Homo sapiens) (UniProt P22455). Briefly: Inhibition of recombinant human FGFR4 (442 to 755 residues) assessed as residual activity at 0.5 uM using poly(Glu, Tyr) 4:1 as substrate at 40 mins in presence of [gamma-33ATP] by scintillation counting based radiometry assay relative to control.
Sequence of Fibroblast growth factor receptor 4 (Homo sapiens) (P22455 22-802 limits assumed): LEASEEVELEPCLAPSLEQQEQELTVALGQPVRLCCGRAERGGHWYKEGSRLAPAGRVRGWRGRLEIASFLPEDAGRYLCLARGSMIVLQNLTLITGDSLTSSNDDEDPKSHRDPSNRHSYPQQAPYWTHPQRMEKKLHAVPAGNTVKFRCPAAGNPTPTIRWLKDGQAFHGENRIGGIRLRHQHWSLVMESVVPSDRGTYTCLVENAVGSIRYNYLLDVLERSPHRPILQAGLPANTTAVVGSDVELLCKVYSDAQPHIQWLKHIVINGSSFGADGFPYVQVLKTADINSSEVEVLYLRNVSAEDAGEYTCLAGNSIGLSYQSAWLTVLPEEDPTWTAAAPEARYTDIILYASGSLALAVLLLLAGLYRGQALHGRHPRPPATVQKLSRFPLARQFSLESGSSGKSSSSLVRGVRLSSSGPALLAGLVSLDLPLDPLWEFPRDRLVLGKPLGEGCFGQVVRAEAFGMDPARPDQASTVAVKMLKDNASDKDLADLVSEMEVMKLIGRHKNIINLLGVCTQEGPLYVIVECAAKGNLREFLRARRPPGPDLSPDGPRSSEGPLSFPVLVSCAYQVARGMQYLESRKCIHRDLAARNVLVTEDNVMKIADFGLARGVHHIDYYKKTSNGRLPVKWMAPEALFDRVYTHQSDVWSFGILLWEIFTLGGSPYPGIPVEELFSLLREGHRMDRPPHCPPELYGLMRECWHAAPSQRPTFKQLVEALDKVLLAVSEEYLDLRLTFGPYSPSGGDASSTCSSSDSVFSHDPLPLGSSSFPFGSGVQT
Data set [5] has as its system Hepatocyte growth factor receptor (Homo sapiens), P08581 [Y1248C]. Briefly: Inhibition of recombinant human Met Y1248C mutant (974 to end residues) assessed as residual activity at 0.5 uM using KKKGQEEEYVFIE as substrate incubated for 40 mins in presence of [gamma-33P]-ATP by scintillation counting method relative to control.
The target in data set [6] is Platelet-derived growth factor receptor alpha (Homo sapiens) (UniProt P16234). Kind of data set: Inhibition of human PDGFRalpha (550 to end residues) assessed as residual activity at 0.5 uM poly(Glu, Tyr) 4:1 as substrate measured after 40 mins in presence of [gamma33P]ATP by scintillation counting method relative to control.
Sequence of Platelet-derived growth factor receptor alpha (Homo sapiens) (P16234 whole entry): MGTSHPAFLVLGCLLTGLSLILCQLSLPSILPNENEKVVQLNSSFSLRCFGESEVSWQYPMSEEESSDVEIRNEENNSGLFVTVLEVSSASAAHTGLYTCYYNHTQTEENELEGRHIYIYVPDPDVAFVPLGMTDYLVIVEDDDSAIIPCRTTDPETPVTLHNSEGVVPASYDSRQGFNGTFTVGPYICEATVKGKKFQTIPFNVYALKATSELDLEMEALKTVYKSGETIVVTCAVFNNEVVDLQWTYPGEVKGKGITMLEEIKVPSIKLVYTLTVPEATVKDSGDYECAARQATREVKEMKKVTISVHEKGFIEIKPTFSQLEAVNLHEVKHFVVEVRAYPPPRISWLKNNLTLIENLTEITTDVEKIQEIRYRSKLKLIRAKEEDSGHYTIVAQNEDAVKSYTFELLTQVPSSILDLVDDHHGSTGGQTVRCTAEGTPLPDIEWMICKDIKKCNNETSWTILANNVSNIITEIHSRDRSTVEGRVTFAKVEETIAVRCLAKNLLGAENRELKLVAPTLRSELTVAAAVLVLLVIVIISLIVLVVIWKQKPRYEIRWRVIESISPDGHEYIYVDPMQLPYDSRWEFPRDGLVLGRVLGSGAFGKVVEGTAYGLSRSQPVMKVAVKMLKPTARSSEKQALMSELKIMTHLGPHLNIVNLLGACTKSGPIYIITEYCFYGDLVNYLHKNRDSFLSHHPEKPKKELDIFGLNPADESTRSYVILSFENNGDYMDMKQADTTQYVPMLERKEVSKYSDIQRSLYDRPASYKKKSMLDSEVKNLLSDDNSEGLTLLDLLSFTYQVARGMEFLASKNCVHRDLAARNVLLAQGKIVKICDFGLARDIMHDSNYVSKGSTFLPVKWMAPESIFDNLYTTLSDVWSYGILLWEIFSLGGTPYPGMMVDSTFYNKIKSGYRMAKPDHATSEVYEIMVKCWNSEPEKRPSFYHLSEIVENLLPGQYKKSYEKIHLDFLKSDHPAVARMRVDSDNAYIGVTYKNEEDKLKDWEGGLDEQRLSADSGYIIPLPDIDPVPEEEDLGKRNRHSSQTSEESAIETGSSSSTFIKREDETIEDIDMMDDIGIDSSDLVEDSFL
Data set [7] concerns Platelet-derived growth factor receptor alpha (Homo sapiens), P16234 [D842V]. Briefly: Inhibition of human PDGFRalpha D842V mutant (550 to end residues) assessed as residual activity at 0.5 uM using poly(Glu, Tyr) 4:1 as substrate measured after 40 mins in presence of [gamma33P]ATP by scintillation counting based radiometry assay relative to control.
Sequence of Platelet-derived growth factor receptor alpha (Homo sapiens), P16234 [D842V] (P16234 whole entry D842V): as the sequence (P16234 whole entry) above, with D842V counted along it
The target of data set [8] is Proto-oncogene tyrosine-protein kinase receptor Ret (Homo sapiens) (UniProt P07949). Kind of data set: Inhibition of recombinant human Ret (658 to end residues) assessed as residual activity at 0.5 uM using KKKSPGEYVNIEFG as substrate incubated for 40 mins in presence of [gamma33P]ATP by scintillation counting based radiometry assay relative to control.
Sequence of Proto-oncogene tyrosine-protein kinase receptor Ret (Homo sapiens) (P07949 whole entry): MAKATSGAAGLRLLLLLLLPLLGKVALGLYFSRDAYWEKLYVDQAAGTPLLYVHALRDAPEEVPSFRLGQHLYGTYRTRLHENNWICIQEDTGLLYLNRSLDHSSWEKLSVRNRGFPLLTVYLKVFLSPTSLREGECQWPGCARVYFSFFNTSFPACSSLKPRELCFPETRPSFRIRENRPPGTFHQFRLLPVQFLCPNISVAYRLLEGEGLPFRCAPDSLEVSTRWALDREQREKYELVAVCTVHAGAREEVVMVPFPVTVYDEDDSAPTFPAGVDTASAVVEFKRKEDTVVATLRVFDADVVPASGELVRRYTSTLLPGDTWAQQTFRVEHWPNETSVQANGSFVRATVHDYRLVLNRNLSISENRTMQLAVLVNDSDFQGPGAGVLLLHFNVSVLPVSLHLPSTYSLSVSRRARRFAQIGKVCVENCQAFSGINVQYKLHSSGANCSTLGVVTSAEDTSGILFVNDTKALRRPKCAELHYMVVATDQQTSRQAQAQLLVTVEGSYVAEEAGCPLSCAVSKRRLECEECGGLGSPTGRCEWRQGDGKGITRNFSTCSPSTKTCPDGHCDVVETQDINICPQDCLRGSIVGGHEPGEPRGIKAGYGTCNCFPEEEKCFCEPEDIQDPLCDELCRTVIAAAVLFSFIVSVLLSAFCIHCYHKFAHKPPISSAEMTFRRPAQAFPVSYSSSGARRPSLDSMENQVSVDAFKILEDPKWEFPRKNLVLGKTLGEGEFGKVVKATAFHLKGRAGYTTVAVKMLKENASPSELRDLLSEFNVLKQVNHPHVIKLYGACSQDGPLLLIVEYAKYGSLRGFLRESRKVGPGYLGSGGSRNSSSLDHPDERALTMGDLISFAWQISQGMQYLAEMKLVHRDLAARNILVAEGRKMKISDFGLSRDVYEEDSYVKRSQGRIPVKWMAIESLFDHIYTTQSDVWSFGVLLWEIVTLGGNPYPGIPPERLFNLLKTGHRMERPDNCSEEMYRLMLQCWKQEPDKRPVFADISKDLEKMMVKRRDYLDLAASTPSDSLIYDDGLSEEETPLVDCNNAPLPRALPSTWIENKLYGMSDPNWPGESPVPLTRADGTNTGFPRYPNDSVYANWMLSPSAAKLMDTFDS
In data set [9] the target is BDNF/NT-3 growth factors receptor (Homo sapiens) (UniProt Q16620). Kind of data set: Inhibition of human TrkB (455 to end residues) assessed as residual activity at 0.5 uM using poly(Glu, Tyr) 4:1 as substrate measured after 40 mins in presence of [gamma33P]ATP by scintillation counting method relative to control.
Sequence of BDNF/NT-3 growth factors receptor (Homo sapiens) (Q16620 32-822 limits assumed): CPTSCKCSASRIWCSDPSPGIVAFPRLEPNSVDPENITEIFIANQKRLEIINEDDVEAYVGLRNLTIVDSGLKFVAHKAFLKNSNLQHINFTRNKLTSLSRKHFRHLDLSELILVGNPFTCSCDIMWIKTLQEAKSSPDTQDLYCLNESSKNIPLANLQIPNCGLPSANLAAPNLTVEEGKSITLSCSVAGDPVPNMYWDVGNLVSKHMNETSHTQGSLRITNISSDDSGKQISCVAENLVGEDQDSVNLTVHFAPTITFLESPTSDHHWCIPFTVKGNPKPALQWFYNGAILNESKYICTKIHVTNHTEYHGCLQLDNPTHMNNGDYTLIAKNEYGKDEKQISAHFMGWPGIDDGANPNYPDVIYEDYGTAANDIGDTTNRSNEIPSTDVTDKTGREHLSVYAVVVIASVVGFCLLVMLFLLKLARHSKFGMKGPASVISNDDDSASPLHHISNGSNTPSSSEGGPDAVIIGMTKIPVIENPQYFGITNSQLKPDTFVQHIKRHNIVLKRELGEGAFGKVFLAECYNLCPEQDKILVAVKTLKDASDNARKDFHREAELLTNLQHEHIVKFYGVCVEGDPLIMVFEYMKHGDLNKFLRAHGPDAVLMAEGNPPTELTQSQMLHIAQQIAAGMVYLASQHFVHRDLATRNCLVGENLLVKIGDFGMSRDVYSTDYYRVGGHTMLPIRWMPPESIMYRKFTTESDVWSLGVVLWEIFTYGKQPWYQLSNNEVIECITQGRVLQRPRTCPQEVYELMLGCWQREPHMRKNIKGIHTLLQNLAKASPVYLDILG
The target of data set [10] is Tyrosine-protein kinase JAK1 (Homo sapiens) (UniProt P23458). Kind of data set: Inhibition of human JAK1 (866 to end residues) assessed as residual activity at 0.5 uM using GEEPLYWSFPAKKK as substrate after 40 mins by [gamma-33ATP] radiometric assay relative to control.
Data set [11] in a line: C0 in female Sprague-Dawley rat at 2 mg/kg, iv measured up to 24 hrs by LC/MS/MS analysis. Type of data set: ADME, organism-based. The following applies: in vivo.
The nature of data set [12]: Half life in male Sprague-Dawley rat at 2 mg/kg, iv measured up to 24 hrs by LC-MS/MS analysis. The following applies: in vivo. It counts as ADME, organism-based.
The nature of data set [13]: Half life in female Sprague-Dawley rat at 2 mg/kg, iv measured up to 24 hrs by LC-MS/MS analysis. It counts as ADME, organism-based. The settings on record: in vivo.
Data set [14] can be described thus: Volume of distribution in male Sprague-Dawley rat at 2 mg/kg, iv measured up to 24 hrs by LC-MS/MS analysis. The following applies: in vivo. It counts as ADME, organism-based.
The nature of data set [15]: Volume of distribution in female Sprague-Dawley rat at 2 mg/kg, iv measured up to 24 hrs by LC-MS/MS analysis. Type of data set: ADME, organism-based. The settings on record: in vivo.
The nature of data set [16]: Cmax in female Sprague-Dawley rat at 10 mg/kg, po measured up to 24 hrs by LC-MS/MS analysis. It counts as ADME, organism-based. Further details: route oral, dose 10 mg/kg, time <=24. The settings on record: in vivo.
Data set [17] is described as follows: Oral bioavailability in male Sprague-Dawley rat at 10 mg/kg measured up to 24 hrs by LC/MS/MS analysis. It counts as ADME, organism-based. The following applies: in vivo.
For data set [18], the target named is ALK tyrosine kinase receptor (Homo sapiens, UniProt Q9UM73).
Description: Inhibition of ALK (unknown origin) incubated for 120 mins in presence of 33P-ATP
Data set [19] is described as follows: Toxicity in mouse xenografted with mouse BaF3 cells transfected with ETV6-NTRK3-G623R mutant assessed as weight loss at 20 mg/kg, po administered once daily for 21 days and measured twice weekly. The settings on record: in vivo, 504 h.
Data set [20] is described as follows: Toxicity in mouse xenografted with mouse BaF3 cells transfected with LMNA-NTRK1-G595R mutant assessed as weight loss at 20 mg/kg, po administered once daily for 21 days and measured twice weekly. The settings on record: in vivo, 504 h.
The test system of data set [21] is BaF3. Briefly: Antitumor activity against mouse BaF3 cells transfected with ETV6-NTRK3 xenografted in mouse assessed as tumor growth inhibition at 5 to 20 mg/kg, po administered once daily for 21 days and measured twice weekly. The following applies: dose 5-20 mg/kg, time 21.0 day.
The test system of data set [22] is BaF3. Kind of data set: Antitumor activity against mouse BaF3 cells transfected with ETV6-NTRK3-G623R mutant xenografted in mouse assessed as tumor growth inhibition at 5 to 20 mg/kg, po administered once daily for 21 days and measured twice weekly. The settings on record: dose 5-20 mg/kg, time 21.0 day.
Data set [23] in a line: Volume of distribution in Sprague-Dawley rat at 3 mg/kg measured up to 24 hrs by LC-MS/MS analysis. It counts as ADME, organism-based. The settings on record: in vivo.
Data set [24] is described as follows: Toxicity in […] xenografted with mouse BaF3 cells transfected with ETV6-NTRK3-G623R mutant assessed as death at 100 mg/kg, po administered once daily for 21 days and measured twice weekly. The settings on record: in vivo, 504 h, time 21 day. It counts as organism-based.
A short description of data set [25]: Toxicity in […] xenografted with mouse BaF3 cells transfected with LMNA-NTRK1-G595R mutant assessed as death at 100 mg/kg, po administered once daily for 21 days and measured twice weekly. Type of data set: organism-based. The settings on record: in vivo, 504 h, time 21 day.
Data set [26] is described as follows: Toxicity in mouse xenografted with mouse BaF3 cells transfected with LMNA-NTRK1 assessed as weight loss at 100 mg/kg, po administered once daily for 21 days and measured twice weekly. The following applies: in vivo, 504 h.
The test system of data set [27] is BaF3. Kind of data set: Antitumor activity against mouse BaF3 cells transfected with ETV6-NTRK3-G623R mutant xenografted in mouse assessed as tumor growth inhibition at 100 mg/kg, po administered once daily for 21 days and measured twice weekly. The settings on record: time 21.0 day.

Sequence of Focal adhesion kinase 1 (Homo sapiens) (Q05397 2-1052 limits assumed): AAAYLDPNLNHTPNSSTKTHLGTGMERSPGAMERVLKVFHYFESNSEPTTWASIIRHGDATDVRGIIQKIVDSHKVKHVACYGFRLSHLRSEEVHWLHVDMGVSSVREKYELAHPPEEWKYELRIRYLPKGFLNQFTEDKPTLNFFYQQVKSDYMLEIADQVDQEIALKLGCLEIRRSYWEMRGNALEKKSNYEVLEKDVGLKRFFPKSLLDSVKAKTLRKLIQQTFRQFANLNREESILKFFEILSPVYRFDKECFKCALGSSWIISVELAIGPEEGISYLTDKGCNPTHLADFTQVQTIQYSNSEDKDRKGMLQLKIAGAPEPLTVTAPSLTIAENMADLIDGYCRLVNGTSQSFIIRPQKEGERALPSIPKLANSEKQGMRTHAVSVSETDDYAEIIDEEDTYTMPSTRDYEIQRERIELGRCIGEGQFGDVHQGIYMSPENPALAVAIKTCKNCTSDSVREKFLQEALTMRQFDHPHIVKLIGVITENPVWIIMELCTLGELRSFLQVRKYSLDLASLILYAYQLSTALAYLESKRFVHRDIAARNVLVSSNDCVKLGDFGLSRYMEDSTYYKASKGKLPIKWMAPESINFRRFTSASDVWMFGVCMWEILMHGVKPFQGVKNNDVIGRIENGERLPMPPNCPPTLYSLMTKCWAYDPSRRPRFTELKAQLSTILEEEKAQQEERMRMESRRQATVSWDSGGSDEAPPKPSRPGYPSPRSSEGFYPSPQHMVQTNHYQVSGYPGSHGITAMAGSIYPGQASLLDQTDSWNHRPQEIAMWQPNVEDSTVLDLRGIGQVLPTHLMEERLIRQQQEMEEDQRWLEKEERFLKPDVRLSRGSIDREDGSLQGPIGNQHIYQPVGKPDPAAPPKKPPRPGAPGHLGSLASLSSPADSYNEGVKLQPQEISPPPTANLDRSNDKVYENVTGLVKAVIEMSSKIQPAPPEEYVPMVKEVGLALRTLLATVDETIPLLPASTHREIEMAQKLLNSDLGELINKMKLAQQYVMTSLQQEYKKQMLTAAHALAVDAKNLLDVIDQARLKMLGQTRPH

As for `O=C1NC2(CC2)COc2ncc(F)cc2[C@H]2COCCN2c2ccn3ncc1c3n2`, the Activity amounted to 108% in data set [1]; 72% in data set [2]; 96% in data set [3]; 114% in [4]; 85% in [5]; 106% in data set [6]. In addition, the Activity was 102% in [7]; 64% in [8]; -1% in [9]; 91% in [10]; “Toxic” in [19]; “Toxic” in [20]. The C0 at 24 h in data set [11] is 3.51 µM. The half-life in [12] was 0.872 h; in [13] it was 2.21 h. In addition, the results for the Vd in [14] and in data set [15] were 1.39 L/kg and 1.46 L/kg, respectively. Further, the Cmax in data set [16] amounted to 6.63 µM. This compound also returned a bioavailability in [17] of 56%. Also, in [18], the IC50 was found to be 182 nM. The outcome in [21] and in data set [22] was Active.

`C[C@@H]1CCc2ncc(F)cc2[C@H]2CCCN2c2ccn3ncc(c3n2)C(=O)N1` [SELITRECTINIB]: in data set [23], the Vd is 0.5 L/kg. In addition, the Activity entry in data set [24], in data set [25] and in data set [26] was “Toxic” each time. The result in data set [27] was Active.
